Here are results for 35 compounds from US8283358B2, “N-sulfonamido polycyclic pyrazolyl compounds” (Elan Pharmaceuticals, Inc., priority 2008, dated 2012).

Structures are written as SMILES. pIC50: −log10 of the molar value.

The first assay addresses T1, gamma-secretase (partially purified extract of IMR-32 cell membranes; substrate MBP-C125 Swe fusion protein, cleavage at the Aβ40 site) (Homo sapiens, UniProt P49768).
T1 construct: a partially purified extract of IMR-32 cell membranes as the gamma-secretase enzyme preparation; endogenous in cells; host or cells: IMR-32 cell membranes, partially purified extract
In words: Gamma-secretase APP enzyme assay (Example A). The assay is classed as biochemical. Particulars: class symbols; assay described in Example A; read-out: γAPP IC50. The method, boiled down: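 IMR-32 membrane extract, solubilised in BigCHAPS with brain lipid (0.53 mg/ml) in Hepes/NaCl, preincubated 30 min at 37° C with inhibitor; MBP-C125 Swe substrate then added, 2 h at 37° C, SDS-quenched. Aβ40 neo-epitope product measured by sandwich ELISA against six-point standard curve.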
With `O=S(=O)(c1ccc(C(F)(F)F)nc1)N1C2c3c[nH]nc3[C@H](O)C1c1c(F)cccc12` (some centres unmarked) [compound 239], the pIC50 was less than 6.00.
Same read-out and setting: the value for `O=S(=O)(c1ccc(C(F)(F)F)nc1)N1C2c3c[nH]nc3[C@@H](O)C1c1c(F)cccc12` (some centres unmarked) [compound 240] was 6.30 to 7.00.
On the same count and under the same terms, under `O=S(=O)(c1ccc(C(F)(F)F)nc1)N1C2Cc3[nH]ncc3C1c1cc(-c3ccc(F)cc3)ccc12` (centres unmarked) [compound 241] stands more than 7.00; under `O=C1c2[nH]ncc2C2c3c(F)cccc3C1N2S(=O)(=O)c1ccc(Cl)cc1` (centres unmarked) [compound 242], more than 7.00; under `O=C1c2[nH]ncc2C2c3c(F)cccc3C1N2S(=O)(=O)c1ccc(Cl)cc1` (centres unmarked) [compound 243], 6.30 to 7.00.
Still for that read-out and setting: the value for `O=S(=O)(c1ccc(C(F)(F)F)nc1)N1C2Cc3[nH]ncc3C1c1cc(Br)ccc12` (centres unmarked) [compound 250] was more than 7.00; that for `O=S(=O)(c1ccc(C(F)(F)F)nc1)N1C2Cc3[nH]ncc3C1c1cc(Br)ccc12` (centres unmarked) [compound 251] was 6.30 to 7.00; that for `O=S(=O)(c1ccc(C(F)(F)F)nc1)N1C2Cc3n[nH]cc3C1c1cccc(CO)c12` (centres unmarked) [compound 252] was more than 7.00.
As for `O=S(=O)(c1ccc(C(F)(F)F)nc1)N1C2Cc3n[nH]cc3C1c1nc(-c3ccc(F)cc3)ccc12` (centres unmarked) [compound 254], the pIC50 was 6.30 to 7.00.
Same read-out and setting: the value for `O=S(=O)(c1ccc(C(F)(F)F)nc1)N1C2Cc3[nH]ncc3C1c1nc(C3CC3)ccc12` (centres unmarked) [compound 255] was 6.30 to 7.00.
The same measure, in the same setting: the value for `O=S(=O)(c1ccc(C(F)(F)F)nc1)N1C2Cc3[nH]ncc3C1c1nc(C3CC3)ccc12` (centres unmarked) [compound 256] was less than 6.00.
Still for that read-out and setting: the value for `CC#Cc1ccc2c(c1)[C@@H]1c3cn[nH]c3C[C@@H]2N1S(=O)(=O)c1ccc(C(F)(F)F)nc1` [compound 261] was 6.30 to 7.00; that for `O=S(=O)(c1ccc(C(F)(F)F)nc1)N1C2/C(=N/O)c3[nH]ncc3C1c1cccc(Cl)c12` (centres unmarked) [compound 265] was more than 7.00.
Turning to `O=S(=O)(c1ccc(C(F)(F)F)nc1)N1[C@H]2c3cn[nH]c3[C@H](F)[C@@H]1c1cccc(F)c12` [compound 267], the pIC50 is more than 7.00.
Still for that read-out and setting: the value for `O=S(=O)(c1ccc(C(F)(F)F)nc1)N1[C@@H]2c3cn[nH]c3[C@H](F)[C@H]1c1cccc(F)c12` [compound 268] was less than 6.00; that for `CO/N=C1\c2[nH]ncc2C2c3cccc(Cl)c3C1N2S(=O)(=O)c1ccc(C(F)(F)F)nc1` (centres unmarked) [compound 269] was more than 7.00.
With `C=C1c2[nH]ncc2C2c3cccc(Cl)c3C1N2S(=O)(=O)c1ccc(C(F)(F)F)nc1` (centres unmarked) [compound 272], the pIC50 is more than 7.00.
The same measure, in the same setting: the value for `CC12C(=O)c3[nH]ncc3C(c3ccccc31)N2S(=O)(=O)c1ccc(C(F)(F)F)nc1` (centres unmarked) [compound 275] was more than 7.00; that for `CC12C(=O)c3[nH]ncc3C(c3ccccc31)N2S(=O)(=O)c1ccc(C(F)(F)F)cc1` (centres unmarked) [compound 277] was more than 7.00.

Staying with this assay, now noted: numeric bounds given instead of class symbols; assay described in Example A; read-out: γAPP IC50.
Take `CC12C(=O)c3[nH]ncc3C(c3ccccc31)N2S(=O)(=O)c1ccc(C(F)(F)F)nc1` (centres unmarked) [compound 276]: the pIC50 is less than 7.52.

The next assay deals with gamma secretase in CHO cells expressing APPSwe, NotchΔE and a Notch responsive luciferase reporter gene (SNC-204B8). In words: SNC dual cell assay for simultaneous assay of A-beta reduction and Notch signaling (Example D). Particulars: ratio of Notch IC50/Aβ EC50 determined as described in Example D (SNC dual cell assay).
From the text: In order to facilitate testing the potency of gamma-secretase inhibitors on two substrates (APP and Notch) simultaneously, a dual-assay using a CHO cell line stably expressing APPSwe, a Notch substrate lacking the ecto-domain, and a Notch responsive Luciferase reporter gene was developed. CHOSwe cells stably over-express the Swedish FAD isoform of APP, and secrete large amounts of Aβ peptide into the conditioned media from endogenous β- and γ-secretase enzyme activity. A Notch intracellular domain (NICD) responsive reporter gene, and the constitutive gamma-secretase Notch substrate, NotchΔE, were stably introduced into CHOSwe cells in a two step process. CHOSwe cells were first stably transfected to express a NICD responsive luciferase reporter gene construct (pGL2-CBF-Luc). […] Stable cell lines expressing rat NotchΔE were then identified in the second step by including a gamma-secretase inhibitor in the selection process (to suppress Notch/NICD toxicity) following transfection of the rat Notch-ΔE construct. […] This vector drives expression of a truncated rat Notch construct corresponding to the c-terminal product following ecto-domain shedding of full length rat Notch protein. The c-terminal product is a constitutive substrate for gamma-secretase cleavage, resulting in release of the cytoplasmic Notch intracellular domain (NICD) product, which translocates to the nucleus and relieves CBF repressed genes. Subsequently, pIRES-ZEDN transfected cells were re-plated at low density in the presence of test compound, and selected with three antibiotics (G418 (0.5 mg/ml)/Hygro (1 mg/ml)/Puro (2.5 mg/ml)). The antibiotic-resistant colonies (named SNC clones for the dual-assay components: APPSwe/NotchΔE/CBF) were isolated and expanded for characterization of Aβ secretion, and NICD responsive reporter gene activity (i.e. luciferase signal in the presence versus absence of test compound). […] A typical dual-assay experiment was performed as follows: Day 1, the SNC cells were plated in 96-well assay plates in inhibitor-free media. Day 2, the cells were fed with fresh media (inhibitor free) and treated with test compounds over a concentration range 0 nM to 40,000 nM (in 10× incremental dilutions) one hour after the media change. The cells were treated with compounds overnight at 37° C. […] For the Notch signaling assay, the cells were lysed and luciferase activity from the lysate was measured using the Promega kit (see below). Day 4, Aβ-ELISA part II was conducted using 3D6-biotin/AP-streptavidin antibodies.
As to `O=S(=O)(c1ccc(C(F)(F)F)cc1)N1C2Cc3[nH]ncc3C1CC(c1csnn1)C2` (racemic) [(±)-6-(1,2,3-thiadiazol-4-yl)-10-{[4-(trifluoromethyl)phenyl]sulfonyl}-4,5,6,7,8,9-hexahydro-1H-4,8-epiminocycloocta[c]pyrazole], the “Selectivity Ratio (Notch IC50/Aβ ED50)” value is “(^++)”.
Same read-out and setting: the value for `O=S(=O)(c1ccc(C(F)(F)F)nc1)N1C2Cc3[nH]ncc3C1CC(c1ccc3c(c1)OCO3)C2` (racemic) [(±)-6-(1,3-benzodioxol-5-yl)-10-{[6-(trifluoromethyl)pyridin-3-yl]sulfonyl}-4,5,6,7,8,9-hexahydro-1H-4,8-epiminocycloocta[c]pyrazole] was “(+) ((+) means a ratio from about 50 to about 99)”; that for `O=S(=O)(c1ccc(C(F)(F)F)cc1)N1C2Cc3[nH]ncc3C1CC(c1cccc(Br)c1)C2` (racemic) [(±)-6-(3-bromophenyl)-10-{[4-(trifluoromethyl)phenyl]sulfonyl}-4,5,6,7,8,9-hexahydro-1H-4,8-epiminocycloocta[c]pyrazole] was “(+) ((+) means a ratio from about 50 to about 99)”.
As to `O=S(=O)(c1ccc(C(F)(F)F)cc1)N1C2Cc3[nH]ncc3C1CC(c1cccc(-n3cccn3)c1)C2` (racemic) [(±)-6-[3-(1H-pyrazol-1-yl)phenyl]-10-{[4-(trifluoromethyl)phenyl]sulfonyl}-4,5,6,7,8,9-hexahydro-1H-4,8-epiminocycloocta[c]pyrazole], the “Selectivity Ratio (Notch IC50/Aβ ED50)” value is given as “(+) ((+) means a ratio from about 50 to about 99)”.
The same measure, in the same setting: under `O=S(=O)(c1ccc(C(F)(F)F)cc1)N1C2Cc3[nH]ncc3C1c1cccc(-c3cccc(C(F)(F)F)c3)c1C2` (racemic) [(±)-7-[3-(trifluoromethyl)phenyl]-12-{[4-(trifluoromethyl)phenyl]sulfonyl}-4,5,6,11-tetrahydro-3H-5,11-epiminobenzo[4,5]cycloocta[1,2-c]pyrazole] stands “(++) ((++) means a ratio from about 100 to about 149)”; under `O=S(=O)(c1ccc(C(F)(F)F)nc1)N1C2Cc3[nH]ncc3C1c1ncc(F)cc12` (racemic) [(±)-7-fluoro-11-{[6-(trifluoromethyl)pyridin-3-yl]sulfonyl}-1,4,9,10-tetrahydro-4,9-epiminopyrazolo[3′,4′: 5,6]cyclohepta[1,2-b]pyridine], “(+) ((+) means a ratio from about 50 to about 99)”.
Still for that read-out and setting: under `Cc1noc(C2CC3Cc4[nH]ncc4C(C2)N3S(=O)(=O)c2ccc(Cl)cc2)n1` (racemic) [(±)-10-[(4-chlorophenyl)sulfonyl]-6-(3-methyl-1,2,4-oxadiazol-5-yl)-4,5,6,7,8,9-hexahydro-1H-4,8-epiminocycloocta[c]pyrazole] stands “(++++) ((++++) means a ratio of Notch IC50/Aβ EC50 (determined as described in Example D) of >200)”; under `Cc1cc(C2CC3Cc4[nH]ncc4C(C2)N3S(=O)(=O)c2ccc(Cl)cc2)on1` (racemic) [(±)-10-[(4-chlorophenyl)sulfonyl]-6-(3-methylisoxazol-5-yl)-4,5,6,7,8,9-hexahydro-1H-4,8-epiminocycloocta[c]pyrazole], “(++++) ((++++) means a ratio of Notch IC50/Aβ EC50 (determined as described in Example D) of >200)”; under `O=S(=O)(c1ccc(C(F)(F)F)nc1)N1C2Cc3[nH]ncc3C1CC(c1nc(C(F)(F)F)cs1)C2` (racemic) [(±)-10-{[6-(trifluoromethyl)pyridin-3-yl]sulfonyl}-6-[4-(trifluoromethyl)-1,3-thiazol-2-yl]-4,5,6,7,8,9-hexahydro-1H-4,8-epiminocycloocta[c]pyrazole], “(+++) ((+++) means a ratio from about 150 to about 199)”.
Same read-out and setting: under `O=S(=O)(c1ccc(C(F)(F)F)nc1)N1C2Cc3[nH]ncc3C1CC(c1ccc(F)cc1)C2` (racemic) [(±)-endo-6-(4-fluorophenyl)-10-{[6-(trifluoromethyl)pyridin-] [(±)-endo-6-(4-fluorophenyl)-10-{[6-(trifluoromethyl)pyridin-3-yl]sulfonyl}-4,5,6,7,8,9-hexahydro-1H-4,8-epiminocycloocta[c]pyrazole] stands “(++) ((++) means a ratio from about 100 to about 149)”; under `O=S(=O)(c1ccc(C(F)(F)F)nc1)N1C2Cc3[nH]ncc3C1CC(c1ccc(F)cc1)C2` (racemic) [(±)-exo-6-(4-fluorophenyl)-10-{[6-(trifluoromethyl)pyridin-3] [(±)-exo-6-(4-fluorophenyl)-10-{[6-(trifluoromethyl)pyridin-3-yl]sulfonyl}-4,5,6,7,8,9-hexahydro-1H-4,8-epiminocycloocta[c]pyrazole], “(+++) ((+++) means a ratio from about 150 to about 199)”.
For `O=S(=O)(c1ccc(C(F)(F)F)cc1)N1C2c3cn[nH]c3C(F)C1c1cccc(F)c12` (single isomer, unassigned; (+)) [(+)-5,10-difluoro-11-{[4-(trifluoromethyl)phenyl]sulfonyl}-1,4,9,10-tetrahydro-4,9-epiminobenzo[4,5]cyclohepta[1,2-c]pyrazole], the “Selectivity Ratio (Notch IC50/Aβ ED50)” value is “(++) ((++) means a ratio from about 100 to about 149)”.
With `O=S(=O)(c1ccc(C(F)(F)F)cc1)N1C2c3ccccc3C1C(O)c1[nH]ncc12` (single isomer, unassigned; (+)) [(+)-endo-11-{[4-(trifloromethyl)phenyl]sulfonyl}-1,4,9,10-tetrahydro-4,9-epiminobenzo[4,5]cyclohepta[1,2-c]pyrazol-10-ol], the “Selectivity Ratio (Notch IC50/Aβ ED50)” value is listed as “(+++) ((+++) means a ratio from about 150 to about 199)”.
On the same count and under the same terms, the value for `O=C1c2[nH]ncc2C2c3c(F)cccc3C1N2S(=O)(=O)c1ccc(C(F)(F)F)nc1` (single isomer, unassigned; (-)) [(−)-5-fluoro-11-{[6-(trifluoromethyl)pyridin-3-yl]sulfonyl}-4,9-dihydro-4,9-epiminobenzo[4,5]cyclohepta[1,2-c]pyrazol-10(1H)-one] was “(++++) ((++++) means a ratio of Notch IC50/Aβ EC50 (determined as described in Example D) of >200)”.
Still for that read-out and setting: the value for `O=S(=O)(c1ccc(C(F)(F)F)nc1)N1C2Cc3[nH]ncc3C1c1cc(Br)ccc12` (single isomer, unassigned; (-)) [(−)-6-bromo-11-{[6-(trifluoromethyl)pyridin-3-yl]sulfonyl}-1,4,9,10-tetrahydro-4,9-epiminobenzo[4,5]cyclohepta[1,2-c]pyrazole] was “(+) ((+) means a ratio from about 50 to about 99)”.
